What was measured:
[1] = test system: human airway epithelial cells (HAECs); assay: High-throughput sequencing (HTS) of miRNAs at four stages of differentiation of HAECs
From the text: The total RNAs were extracted from HAECs cultivated at the air-liquid interface at four stages of differentiation: ALI-D0 (0 day), ALI-D7 (7 days), ALI-FC (during appearance of the first cilia at about 14 days) and ALI-WD (wholly differentiated at about 21 days). The cells are lysed in reagent with Trizol® (Invitrogen). The total RNAs containing small RNAs and microRNAs are purified on Qiagen RNEasy columns (Qiagen) according to the supplier's instructions.
The total RNAs containing small RNAs and microRNAs are isolated as before. The procedure is based on the Applied Biosystems Ligase-Enhanced Genome Detection technology (LEGenD™); the SOLiD™ Small RNA Expression kit (Applied Biosystems, France) was used. With this method it is possible to convert the small RNAs of a sample into a library of double-stranded DNA; it was developed by Applied Biosystems SOLiD™ System for a new generation of high-throughput sequencing.
The high-throughput sequencing of the microRNAs was carried out according to the supplier's recommendations. Briefly, the total RNAs containing the small RNAs are hybridized (65° C., 10 min, then at 16° C., 5 min) and ligated (16° C., 2-16 h in a thermocycler) with the Adaptor Mix A for producing a matrix for sequencing the 5′ end of the small RNAs, or with the Adaptor Mix B for sequencing the 3′ end. The samples are then reverse-transcribed (42° C., 30 min) to synthesize the complementary DNA (cDNA). The library of small RNAs is amplified by PCR and after migration on polyacrylamide gel the amplified small RNAs are cut out and extracted from the gel according to their size (length of about 105-150 bases, according to the supplier's instructions), eluted and resuspended in nuclease-free water. The concentration of nucleic acids is then measured and normalized before proceeding with preparation of the samples for sequencing.
For each microRNA sequenced, the number of sequences of the 5p strand and of the 3p strand of the microRNA was normalized to 10^6 sequences and converted to percentage abundance of expression for each of the microRNAs. The data were then normalized according to a linear model and an empirical Bayesian method using software R. For subsequent analyses, only the microRNAs were retained for which the percentage expression (or abundance) is greater than 1% of the total of the microRNAs in at least one culture condition, with a |Log2 Ratio| below 0.5 and an adjusted P-value below 0.05.

[2] = test system: human airway epithelial cells (HAECs); assay: Agilent miRNA chips, miRNA expression at four stages of differentiation of HAECs
From the text: In parallel with the high-throughput sequencing of the microRNAs, the repertoire of expression of the microRNAs (microRNAome) is investigated using the technology of Agilent® microRNA chips. For this, RNA samples from the same patients as before were used, labeled and hybridized on Agilent® miRNA chips (Human miRNA Microarray v2, containing 866 human miRNAs and 89 human viral miRNAs, i.e. all the human miRNAs contained and referenced in Sanger miRBase v.12.0, Agilent Technologies, France) using the “miRNA labeling and hybridization” kit, following the supplier's instructions (Agilent Technologies).
The inventors then used the Agilent miRNA chips to investigate the repertoire of expression of the miRNAs of the human airway epithelium and compare the results obtained in high-throughput sequencing with those obtained with Agilent® commercial miRNA chips.

[3] = test system: basal cells and pyramidal cells of the airway epithelium; assay: miRNA expression in sorted basal cells versus pyramidal cells (ciliated + secretory), HTS and Agilent chips; set-up: species or system human
Method: After dissociation of the stroma of nasal polyps, the epithelial cells (about 20.10^6) are incubated in PBS-BSA-EDTA for 30 min and then incubated with labeled antibody CD151-PE and anti-TF (tissue factor)-FITC for 20 min, 4° C. (see Hajj, R. et al., Stem Cells 25, 139-148 (2007)). After washing twice, the cells are taken up in PBS-EDTA and incubated with DAPI for labeling the cells whose integrity has been altered.
Cell sorting was carried out on the FACSAria sorter (BD Biosciences) equipped with 3 lasers, blue, red and violet. Dead cells, aggregates and double cells were excluded. The doubly positive population of basal cells (CD151+/FT+) and the negative population of cylindrical cells (containing ciliated cells and mucus-secreting cells) (CD151−/FT−) were selected and sorted at a rate of 5000 events/s ([…]). The purity and identity of the sorted cells were then verified by cytometry and immunocytochemistry.
Like the native airway epithelium, the model of differentiation in vitro used in these tests consists of basal cells, ciliated cells and mucus-secreting cells. In order to identify the repertoires of the miRNAs specific to each of the cellular types, the inventors used cell sorting by flow cytometry by means of specific markers (Hajj, R. et al. 2007). Using this technique, adult airway progenitor cells (corresponding a priori to basal cells) were isolated, selected and sorted (such cells appear doubly positive for tetraspanin CD151 and for the tissue factor) from the pyramidal cells (i.e. ciliated cells and mucus-secreting cells) which appear negative for these same markers. These were purified from polyps or from nasal conchae obtained from 3 separate donors.
After extracting the total RNAs, the expression profiles of the miRNAs were established by means of Agilent® commercial chips or by high-throughput sequencing (HTS). […] For the first time, the inventors thus attribute a repertoire of expression of the miRNAs specifically to separate cellular types of the airway epithelium during differentiation.

## hsa-let-7f: human miRNA, SEQ ID No. 161 (UGAGGUAGUAGAUUGUAUAGUU; expressed or natural sequence; listed as Homo sapiens)
[1]; D7 − D0, Table VI
  Modulation (ratio of the level of intensity of expression in log2 in two stages of differentiation) measured by high-throughput sequencing, D7 − D0: 0.22 log2
[1]; FC − D7, Table VI
  Modulation (ratio of the level of intensity of expression in log2 in two stages of differentiation) measured by high-throughput sequencing, FC − D7: −0.56 log2
[1]; WD − D0, Table VI
  Modulation (ratio of the level of intensity of expression in log2 in two stages of differentiation) measured by high-throughput sequencing, WD − D0: 0.11 log2
[1]; WD − FC, Table VI
  Modulation (ratio of the level of intensity of expression in log2 in two stages of differentiation) measured by high-throughput sequencing, WD − FC: 0.45 log2
[1]; healthy human airway epithelial tissue, stage WD
  Level of intensity of expression in log2 At the differentiated stage (WD) measured in HTS: 5.35 log2
[1]; stage D0, Table VI
  Level of intensity of expression in log2 measured by high-throughput sequencing, D0: 5.24 log2
[1]; stage D7, Table VI
  Level of intensity of expression in log2 measured by high-throughput sequencing, D7: 5.46 log2
[1]; stage FC, Table VI
  Level of intensity of expression in log2 measured by high-throughput sequencing, FC: 4.90 log2
[1]; stage WD, Table VI
  Level of intensity of expression in log2 measured by high-throughput sequencing, WD: 5.35 log2
[2]; D7 − D0, Table VI
  Modulation (ratio of the level of intensity of expression in log2 in two stages of differentiation) measured with the Agilent chips, D7 − D0: 1.63 log2
[2]; FC − D7, Agilent miRNA chips, Table V
  Modulation (ratio of the level of intensity of expression in log2 at two stages of differentiation), FC − D7: −0.73 log2
[2]; FC − D7, Table VI
  Modulation (ratio of the level of intensity of expression in log2 in two stages of differentiation) measured with the Agilent chips, FC − D7: −0.73 log2
[2]; WD − D0, Table VI
  Modulation (ratio of the level of intensity of expression in log2 in two stages of differentiation) measured with the Agilent chips, WD − D0: 1.08 log2
[2]; WD − FC, Agilent miRNA chips, Table V
  Modulation (ratio of the level of intensity of expression in log2 at two stages of differentiation), WD − FC: 0.17 log2
[2]; WD − FC, Table VI
  Modulation (ratio of the level of intensity of expression in log2 in two stages of differentiation) measured with the Agilent chips, WD − FC: 0.17 log2
[2]; stage D0, Table VI
  Level of intensity of expression in log2 measured with the Agilent chips, D0: 11.11 log2
[2]; stage D7, Table VI
  Level of intensity of expression in log2 measured with the Agilent chips, D7: 12.75 log2
[2]; stage FC, Table VI
  Level of intensity of expression in log2 measured with the Agilent chips, FC: 12.01 log2
[2]; stage WD, Table VI
  Level of intensity of expression in log2 measured with the Agilent chips, WD: 12.19 log2
[3]; HTS and Agilent chips
  Modulation of expression of the miRNAs in pyramidal cells (323(−)) relative to basal cells 323(+): −0.94
[3]; basal cells
  Intensity of the level of expression in log2 in basal cells (323(+)): 10.82 log2
[3]; pyramidal cells (ciliated + secretory)
  Intensity of the level of expression in log2 in pyramidal cells (323(−)): 9.88 log2
